Experimental data from patent US10231453B2, “5-substituted imidazole derivatives” (BAYER CROPSCIENCE AKTIENGESELLSCHAFT, priority 2015, dated 2019).

Test system: Alternaria solani
Test: In vivo preventive Alternaria test (tomatoes), Example H
Conditions: 72 h, 100 ppm of active ingredient, preventive spray, evaluated 3 days after inoculation, read-out: efficacy
In the case of `N#Cc1cncn1CC(O)(Cc1ccccc1F)C1(Cl)CC1` (stereo not drawn) [Example I-34, 1-[2-(1-chlorocyclopropyl)-3-(2-fluorophenyl)-2-hydroxypropyl]-1H-imidazole-5-carbonitrile], the pest or weed control at 100 ppm is reported as 90 to 100%.

Test system: Leptosphaeria nodorum
Test: In vivo preventive Leptosphaeria nodorum test (wheat), Example N
Conditions: Parastagonospora nodorum, 192 h, 500 ppm of active ingredient, preventive spray, evaluated 8 days after inoculation, read-out: efficacy
Source text: After the spray coating has been dried, the plants are sprayed with a spore suspension of Leptosphaeria nodorum.
`N#Cc1cncn1CC(O)(Cc1ccccc1F)C1(Cl)CC1` (stereo not drawn) [Example I-34, 1-[2-(1-chlorocyclopropyl)-3-(2-fluorophenyl)-2-hydroxypropyl]-1H-imidazole-5-carbonitrile] gave a pest or weed control at 500 ppm of 90 to 100%.

Test system: Alternaria brassicae
Test: In vivo preventive test on Alternaria brassicae (leaf spot on radish), Examples A and R1
Conditions: Alternaria brassicae, 144 h, 500 ppm of active ingredient, preventive spray, evaluated 6 days after inoculation, read-out: efficacy
With `N#Cc1cncn1CC(O)(Cc1ccccc1F)C1(Cl)CC1` (stereo not drawn) [Example I-34, 1-[2-(1-chlorocyclopropyl)-3-(2-fluorophenyl)-2-hydroxypropyl]-1H-imidazole-5-carbonitrile] the pest or weed control at 500 ppm was 90 to 100%.

Same assay, conditions: Alternaria brassicae, 144 h, Example R1, rate of application 100 ppm, read-out: Efficacy in %
In the case of `N#Cc1cncn1CC(O)(Cc1ccccc1F)C1(Cl)CC1` (stereo not drawn) [Example I-34, 1-[2-(1-chlorocyclopropyl)-3-(2-fluorophenyl)-2-hydroxypropyl]-1H-imidazole-5-carbonitrile], the pest or weed control at 100 ppm is reported as 58%.

Same assay, conditions: Alternaria brassicae, 144 h, Example R1, rate of application 500 ppm, read-out: Efficacy in %
For `N#Cc1cncn1CC(O)(Cc1ccccc1F)C1(Cl)CC1` (stereo not drawn) [Example I-34, 1-[2-(1-chlorocyclopropyl)-3-(2-fluorophenyl)-2-hydroxypropyl]-1H-imidazole-5-carbonitrile], the pest or weed control at 500 ppm was 92%.

Test system: Blumeria graminis fsp. hordei
Test: In vivo preventive Blumeria test (barley), Example K
Conditions: 168 h, 500 ppm of active ingredient, preventive spray, evaluated 7 days after inoculation, read-out: efficacy
Source text: After the spray coating has been dried, the plants are dusted with spores of Blumeria graminis fsp. hordei.
`N#Cc1cncn1CC(O)(Cc1ccccc1F)C1(Cl)CC1` (stereo not drawn) [Example I-34, 1-[2-(1-chlorocyclopropyl)-3-(2-fluorophenyl)-2-hydroxypropyl]-1H-imidazole-5-carbonitrile] showed a pest or weed control at 500 ppm of 90 to 100%.

Test system: Fusarium nivale (var. majus)
Test: In vivo preventive Fusarium nivale (var. majus) test (wheat), Example O
Conditions: Microdochium nivale, 120 h, 500 ppm of active ingredient, preventive spray, evaluated 5 days after inoculation, read-out: efficacy
Source text: After the spray coating has been dried, the plants are slightly injured by using a sandblast and afterwards they are sprayed with a conidia suspension of Fusarium nivale (var. majus).
In the case of `N#Cc1cncn1CC(O)(Cc1ccccc1F)C1(Cl)CC1` (stereo not drawn) [Example I-34, 1-[2-(1-chlorocyclopropyl)-3-(2-fluorophenyl)-2-hydroxypropyl]-1H-imidazole-5-carbonitrile], the pest or weed control at 500 ppm is reported as 90 to 100%.

Test system: Venturia inaequalis
Test: In vivo preventive Venturia test (apples), Example J
Conditions: 240 h, read-out: efficacy
Protocol: After the spray coating has dried on, the plants are inoculated with an aqueous conidia suspension of the causal agent of apple scab (Venturia inaequalis) and then remain for 1 day in an incubation cabinet at approximately 20° C. and a relative atmospheric humidity of 100%.
The plants are then placed in a greenhouse at approximately 21° C. and a relative atmospheric humidity of approximately 90%.
The test is evaluated 10 days after the inoculation.
Molecule `N#Cc1cncn1CC(O)(Cc1ccccc1F)C1(Cl)CC1` (stereo not drawn) [Example I-34, 1-[2-(1-chlorocyclopropyl)-3-(2-fluorophenyl)-2-hydroxypropyl]-1H-imidazole-5-carbonitrile] has a pest or weed control at 100 ppm of 90 to 100%.

Test system: Fusarium graminearum
Test: whole plant or invertebrate
Format: in vivo
Conditions: in Hordeum vulgare, 120 h, read-out: efficacy
With `N#Cc1cncn1CC(O)(Cc1ccccc1F)C1(Cl)CC1` (stereo not drawn) [Example I-34, 1-[2-(1-chlorocyclopropyl)-3-(2-fluorophenyl)-2-hydroxypropyl]-1H-imidazole-5-carbonitrile] the pest or weed control at 500 ppm was 90 to 100%.

Test system: Botrytis cinerea
Test: In vivo preventive test on Botrytis cinerea (grey mould) on gherkin, Examples B, Q1 and R2
Conditions: Botrytis cinerea, 500 ppm of active ingredient, preventive spray, evaluated 4 to 5 days after inoculation, read-out: efficacy
Molecule `N#Cc1cncn1CC(O)(Cc1ccccc1F)C1(Cl)CC1` (stereo not drawn) [Example I-34, 1-[2-(1-chlorocyclopropyl)-3-(2-fluorophenyl)-2-hydroxypropyl]-1H-imidazole-5-carbonitrile] has a pest or weed control at 500 ppm of 90 to 100%.

Same assay, conditions: Botrytis cinerea, Example R2, rate of application 100 ppm, read-out: Efficacy in %
For `N#Cc1cncn1CC(O)(Cc1ccccc1F)C1(Cl)CC1` (stereo not drawn) [Example I-34, 1-[2-(1-chlorocyclopropyl)-3-(2-fluorophenyl)-2-hydroxypropyl]-1H-imidazole-5-carbonitrile], the pest or weed control at 100 ppm was 94%.

Same assay, conditions: Botrytis cinerea, Example R2, rate of application 500 ppm, read-out: Efficacy in %
`N#Cc1cncn1CC(O)(Cc1ccccc1F)C1(Cl)CC1` (stereo not drawn) [Example I-34, 1-[2-(1-chlorocyclopropyl)-3-(2-fluorophenyl)-2-hydroxypropyl]-1H-imidazole-5-carbonitrile] gave a pest or weed control at 500 ppm of 100%.

Test system: Septoria tritici
Test: In vivo preventive test on Septoria tritici (leaf spot on wheat), Examples E, Q3 and R5
Conditions: Zymoseptoria tritici, 576 h, 500 ppm of active ingredient; wheat, preventive spray, evaluated 24 days after inoculation; read-out: efficacy
`N#Cc1cncn1CC(O)(Cc1ccccc1F)C1(Cl)CC1` (stereo not drawn) [Example I-34, 1-[2-(1-chlorocyclopropyl)-3-(2-fluorophenyl)-2-hydroxypropyl]-1H-imidazole-5-carbonitrile] gave a pest or weed control at 500 ppm of 90 to 100%.

Same assay, conditions: Zymoseptoria tritici, 576 h, Example R5, wheat, preventive spray, 100 ppm, evaluated 24 days after inoculation; read-out: Efficacy in %
For `N#Cc1cncn1CC(O)(Cc1ccccc1F)C1(Cl)CC1` (stereo not drawn) [Example I-34, 1-[2-(1-chlorocyclopropyl)-3-(2-fluorophenyl)-2-hydroxypropyl]-1H-imidazole-5-carbonitrile], the pest or weed control at 100 ppm was 100%.

Same assay, conditions: Zymoseptoria tritici, 576 h, Example R5, wheat, preventive spray, 500 ppm, evaluated 24 days after inoculation; read-out: Efficacy in %
Work on `N#Cc1cncn1CC(O)(Cc1ccccc1F)C1(Cl)CC1` (stereo not drawn) [Example I-34, 1-[2-(1-chlorocyclopropyl)-3-(2-fluorophenyl)-2-hydroxypropyl]-1H-imidazole-5-carbonitrile] yielded a pest or weed control at 500 ppm of 100%.

Test system: not listed separately
Test: Measurement of LogP values by HPLC on reversed phase columns (EEC directive 79/831 Annex V.A8)
Format: physicochemical
Conditions: method [a]: LC-UV, acidic range, 0.1% formic acid in water and acetonitrile as eluent; Table 1
Protocol: Measurement of Log P values was performed as outlined above.
For `N#Cc1cncn1CC(O)(Cc1ccccc1F)C1(Cl)CC1` (stereo not drawn) [Example I-34, 1-[2-(1-chlorocyclopropyl)-3-(2-fluorophenyl)-2-hydroxypropyl]-1H-imidazole-5-carbonitrile], the chromatographic logP was 2.64.

Test system: Pyrenophora teres
Test: In vivo preventive test on Pyrenophora teres (net blotch on barley), Examples D, Q2 and R4
Conditions: Pyrenophora teres, 336 h, 500 ppm of active ingredient, preventive spray, evaluated 14 days after inoculation, read-out: efficacy
`N#Cc1cncn1CC(O)(Cc1ccccc1F)C1(Cl)CC1` (stereo not drawn) [Example I-34, 1-[2-(1-chlorocyclopropyl)-3-(2-fluorophenyl)-2-hydroxypropyl]-1H-imidazole-5-carbonitrile] gave a pest or weed control at 500 ppm of 90 to 100%.

Same assay, conditions: Pyrenophora teres, 336 h, Example R4, rate of application 100 ppm, read-out: Efficacy in %
Work on `N#Cc1cncn1CC(O)(Cc1ccccc1F)C1(Cl)CC1` (stereo not drawn) [Example I-34, 1-[2-(1-chlorocyclopropyl)-3-(2-fluorophenyl)-2-hydroxypropyl]-1H-imidazole-5-carbonitrile] yielded a pest or weed control at 100 ppm of 83%.

Same assay, conditions: Pyrenophora teres, 336 h, Example R4, rate of application 500 ppm, read-out: Efficacy in %
In the case of `N#Cc1cncn1CC(O)(Cc1ccccc1F)C1(Cl)CC1` (stereo not drawn) [Example I-34, 1-[2-(1-chlorocyclopropyl)-3-(2-fluorophenyl)-2-hydroxypropyl]-1H-imidazole-5-carbonitrile], the pest or weed control at 500 ppm is reported as 98%.

Test system: Fusarium culmorum
Test: In vivo preventive Fusarium culmorum test (wheat), Example L
Conditions: 120 h, 500 ppm of active ingredient, preventive spray, evaluated 5 days after inoculation, read-out: efficacy
Protocol: After the spray coating has been dried, the plants are slightly injured by using a sandblast and afterwards they are sprayed with a conidia suspension of Fusarium culmorum.
The test is evaluated 5 days after the inoculation.
With `N#Cc1cncn1CC(O)(Cc1ccccc1F)C1(Cl)CC1` (stereo not drawn) [Example I-34, 1-[2-(1-chlorocyclopropyl)-3-(2-fluorophenyl)-2-hydroxypropyl]-1H-imidazole-5-carbonitrile] the pest or weed control at 500 ppm was 90 to 100%.

Test system: Puccinia recondita
Test: In vivo preventive test on Puccinia recondita (brown rust on wheat), Examples C and R3
Conditions: Puccinia recondita, 264 h; 500 ppm of active ingredient; wheat, preventive spray, evaluated 11 days after inoculation; read-out: efficacy
`N#Cc1cncn1CC(O)(Cc1ccccc1F)C1(Cl)CC1` (stereo not drawn) [Example I-34, 1-[2-(1-chlorocyclopropyl)-3-(2-fluorophenyl)-2-hydroxypropyl]-1H-imidazole-5-carbonitrile] showed a pest or weed control at 500 ppm of 90 to 100%.

Same assay, conditions: Puccinia recondita, 264 h; Example R3, wheat, preventive spray, 100 ppm, evaluated 11 days after inoculation; read-out: Efficacy in %
Molecule `N#Cc1cncn1CC(O)(Cc1ccccc1F)C1(Cl)CC1` (stereo not drawn) [Example I-34, 1-[2-(1-chlorocyclopropyl)-3-(2-fluorophenyl)-2-hydroxypropyl]-1H-imidazole-5-carbonitrile] has a pest or weed control at 100 ppm of 94%.

Same assay, conditions: Puccinia recondita, 264 h; Example R3, wheat, preventive spray, 500 ppm, evaluated 11 days after inoculation; read-out: Efficacy in %
In the case of `N#Cc1cncn1CC(O)(Cc1ccccc1F)C1(Cl)CC1` (stereo not drawn) [Example I-34, 1-[2-(1-chlorocyclopropyl)-3-(2-fluorophenyl)-2-hydroxypropyl]-1H-imidazole-5-carbonitrile], the pest or weed control at 500 ppm is reported as 100%.

Test system: Phakopsora pachyrhizi
Test: In vivo preventive Phakopsora test (soybeans), Example I
Conditions: 168 h, 100 ppm of active ingredient, preventive spray, evaluated 7 days after inoculation, read-out: efficacy
Molecule `N#Cc1cncn1CC(O)(Cc1ccccc1F)C1(Cl)CC1` (stereo not drawn) [Example I-34, 1-[2-(1-chlorocyclopropyl)-3-(2-fluorophenyl)-2-hydroxypropyl]-1H-imidazole-5-carbonitrile] has a pest or weed control at 100 ppm of 90 to 100%.

Test system: Sphaerotheca fuliginea
Test: In vivo preventive test on Sphaerotheca fuliginea (powdery mildew on cucurbits), Examples F and R6
Conditions: Podosphaera fuliginea, 360 h; 500 ppm of active ingredient; gherkin, preventive spray, evaluated 15 days after inoculation; read-out: efficacy
For `N#Cc1cncn1CC(O)(Cc1ccccc1F)C1(Cl)CC1` (stereo not drawn) [Example I-34, 1-[2-(1-chlorocyclopropyl)-3-(2-fluorophenyl)-2-hydroxypropyl]-1H-imidazole-5-carbonitrile], the pest or weed control at 500 ppm was 90 to 100%.

Same assay, conditions: Podosphaera fuliginea, 360 h; Example R6, gherkin, preventive spray, 100 ppm, evaluated 15 days after inoculation; read-out: Efficacy in %
Work on `N#Cc1cncn1CC(O)(Cc1ccccc1F)C1(Cl)CC1` (stereo not drawn) [Example I-34, 1-[2-(1-chlorocyclopropyl)-3-(2-fluorophenyl)-2-hydroxypropyl]-1H-imidazole-5-carbonitrile] yielded a pest or weed control at 100 ppm of 100%.

Same assay, conditions: Podosphaera fuliginea, 360 h; Example R6, gherkin, preventive spray, 500 ppm, evaluated 15 days after inoculation; read-out: Efficacy in %
In the case of `N#Cc1cncn1CC(O)(Cc1ccccc1F)C1(Cl)CC1` (stereo not drawn) [Example I-34, 1-[2-(1-chlorocyclopropyl)-3-(2-fluorophenyl)-2-hydroxypropyl]-1H-imidazole-5-carbonitrile], the pest or weed control at 500 ppm is reported as 100%.

Test system: Uromyces appendiculatus
Test: In vivo preventive test on Uromyces appendiculatus (bean rust), Examples G and R7
Conditions: 264 h, 500 ppm of active ingredient, bean, preventive spray, evaluated 11 days after inoculation, read-out: efficacy
In the case of `N#Cc1cncn1CC(O)(Cc1ccccc1F)C1(Cl)CC1` (stereo not drawn) [Example I-34, 1-[2-(1-chlorocyclopropyl)-3-(2-fluorophenyl)-2-hydroxypropyl]-1H-imidazole-5-carbonitrile], the pest or weed control at 500 ppm is reported as 90 to 100%.

Same assay, conditions: 264 h, Example R7, bean, preventive spray, 100 ppm, evaluated 11 days after inoculation, read-out: Efficacy in %
Molecule `N#Cc1cncn1CC(O)(Cc1ccccc1F)C1(Cl)CC1` (stereo not drawn) [Example I-34, 1-[2-(1-chlorocyclopropyl)-3-(2-fluorophenyl)-2-hydroxypropyl]-1H-imidazole-5-carbonitrile] has a pest or weed control at 100 ppm of 100%.

Same assay, conditions: 264 h, Example R7, bean, preventive spray, 500 ppm, evaluated 11 days after inoculation, read-out: Efficacy in %
Molecule `N#Cc1cncn1CC(O)(Cc1ccccc1F)C1(Cl)CC1` (stereo not drawn) [Example I-34, 1-[2-(1-chlorocyclopropyl)-3-(2-fluorophenyl)-2-hydroxypropyl]-1H-imidazole-5-carbonitrile] has a pest or weed control at 500 ppm of 100%.
